Experimental findings from US20240307419A1, “CONFORMATIONALLY-CONSTRAINED INHIBITORS OF 3C OR 3C-LIKE PROTEASES” (priority 2021, published 2024) are described below.

Molecules are shown by their SMILES. Where only a bound is given, the exact number is not on record here.

One series concerns the target SARS-CoV-2 3CLpro (Severe acute respiratory syndrome coronavirus 2 (2019-nCoV) (SARS-CoV-2), UniProt P0DTD1). Nature of the series: biochemical. As to conditions: read-out: IC50. In kind it is biochemical.
For orientation: IC50 means the concentration at which inhibition is half-maximal. Take `CCCCCC12CCC(COC(=O)N[C@@H](CC(C)C)C(=O)N[C@H](C=O)C[C@@H]3CCNC3=O)(CC1)CC2` [Compound 2i, (4-Pentylbicyclo[2.2.2]octan-1-yl)methyl ((S)-4-methyl-1-oxo-1-(((S)-1-oxo-3-((S)-2-oxopyrrolidin-3-yl)propan-2-yl)amino)pentan-2-yl)carbamate]: the IC50 was found to be 270 ± 20 nM.
`CC(C)C[C@H](NC(=O)OCC12CC3CC(CC(C3)C1)C2)C(=O)N[C@H](C=O)C[C@H]1CCNC1=O` [Compound 2l, ((3S,5S,7S)-Adamantan-1-yl)methyl-d2 ((S)-4-methyl-1-oxo-1-(((S)-1-oxo-3-((S)-2-oxopyrrolidin-3-yl)propan-2-yl)amino)pentan-2-yl)carbamate]: the IC50 was determined as 290 ± 40 nM.
`CC(C)C[C@H](NC(=O)OC[C@@]12C[C@@H]3C[C@@H](C[C@@](O)(C3)C1)C2)C(=O)N[C@H](C=O)C[C@@H]1CCNC1=O` [Compound 2o, ((1r,3R,5R,7S)-3-Hydroxyadamantan-1-yl)methyl-d2 ((S)-4-methyl-1-oxo-1-(((S)-1-oxo-3-((S)-2-oxopyrrolidin-3-yl)propan-2-yl)amino)pentan-2-yl)carbamate]: the IC50 is 740 ± 260 nM.
Consider `CCCCCC12CCC(COC(=O)N[C@@H](CC(C)C)C(=O)N[C@@H](C[C@@H]3CCNC3=O)C(O)S(=O)(=O)O)(CC1)CC2` (stereo partly drawn) [Compound 3i, Sodium (2S)-1-hydroxy-2-((S)-4-methyl-2-((((4-pentylbicyclo[2.2.2]octan-1-yl)methoxy)carbonyl)amino)pentanamido)-3-((S)-2-oxopyrrolidin-3-yl)propane-1-sulfonate], for which the half-maximal inhibitory concentration (IC50) was found to be 300 ± 20 nM.
Take `[2H]C([2H])(OC(=O)N[C@@H](CC(C)C)C(=O)N[C@@H](C[C@@H]1CCNC1=O)C(O)S(=O)(=O)[O-])C12CCC(CCCCC)(CC1)CC2.[Na+]` (stereo partly drawn) [Compound 3j, Sodium (2S)-1-hydroxy-2-((S)-4-methyl-2-((((4-pentylbicyclo[2.2.2]octan-1-yl)methoxy-d2)carbonyl)amino)pentanamido)-3-((S)-2-oxopyrrolidin-3-yl)propane-1-sulfonate]: the IC50 was 310 ± 60 nM.
Regarding `CC(C)C[C@H](NC(=O)OCC12CC3CC(CC(C3)C1)C2)C(=O)N[C@@H](C[C@H]1CCNC1=O)C(O)S(=O)(=O)O` (stereo partly drawn) [Compound 3l, Sodium (2S)-2-((S)-2-(((((3S,5S,7S)-adamantan-1-yl)methoxy-d2)carbonyl)amino)-4-methylpentanamido)-1-hydroxy-3-((S)-2-oxopyrrolidin-3-yl)propane-1-sulfonate], the IC50 came out at 270 ± 40 nM.
Consider `CC(C)C[C@H](NC(=O)OCC12CC3CC(CC(O)(C3)C1)C2)C(=O)N[C@@H](C[C@H]1CCNC1=O)C(O)S(=O)(=O)O` (stereo partly drawn) [Compound 3o, Sodium (2S)-1-hydroxy-2-((S)-2-(((((1r,3R,5R,7S)-3-hydroxyadamantan-1-yl)methoxy-d2)carbonyl)amino)-4-methylpentanamido)-3-((S)-2-oxopyrrolidin-3-yl)propane-1-sulfonate], for which the half-inhibitory concentration (IC50) worked out at 780 ± 180 nM.

Another series has as its system CRFK cells.
Assay: not given
Conditions: cat.
For orientation: CC50 means the concentration at which the toxic effect on the cells reaches its halfway point. A low value points to greater toxicity to the cells. `CC(C)C[C@H](NC(=O)OC1CC2(C1)CN(S(C)(=O)=O)C2)C(=O)N[C@H](C=O)C[C@H]1CCNC1=O` [Compound 4b, 2-(Methylsulfonyl)-2-azaspiro[3.3]heptan-6-yl ((S)-4-methyl-1-oxo-1-(((S)-1-oxo-3-((R)-2-oxopyrrolidin-3-yl)propan-2-yl)amino)pentan-2-yl)carbamate] gave a CC50 above 100 µM.
In turn, `CC(C)C[C@H](NC(=O)OC1CC2(C1)CN(S(C)(=O)=O)C2)C(=O)N[C@@H](C[C@H]1CCNC1=O)C(O)S(=O)(=O)O` (stereo partly drawn) [Compound 4c, Sodium (2S)-1-hydroxy-2-((S)-4-methyl-2-((((2-(methylsulfonyl)-2-azaspiro[3.3]heptan-6-yl)oxy)carbonyl)amino)pentanamido)-3-((R)-2-oxopyrrolidin-3-yl)propane-1-sulfonate] showed a CC50 above 100 µM.
On to `CC(C)C[C@H](NC(=O)OC1CC2(CCN(C(=O)OC(C)(C)C)C2)C1)C(=O)N[C@H](C=O)C[C@H]1CCNC1=O` (stereo partly drawn) [Compound 5b, Tert-butyl 2-((((S)-4-methyl-1-oxo-1-(((S)-1-oxo-3-((R)-2-oxopyrrolidin-3-yl)propan-2-yl)amino)pentan-2-yl)carbamoyl)oxy)-6-azaspiro[3.4]octane-6-carboxylate], for which the CC50 was above 100 µM.
Molecule `CC(C)C[C@H](NC(=O)OC1CC2(CCN(C(=O)OC(C)(C)C)C2)C1)C(=O)N[C@@H](C[C@H]1CCNC1=O)C(O)S(=O)(=O)O` (stereo partly drawn) [Compound 5c, Sodium (2S)-2-((S)-2-((((6-(tert-butoxycarbonyl)-6-azaspiro[3.4]octan-2-yl)oxy)carbonyl)amino)-4-methylpentanamido)-1-hydroxy-3-((R)-2-oxopyrrolidin-3-yl)propane-1-sulfonate] displayed a cytotoxic concentration (CC50) above 100 µM.
In the case of `CC(C)C[C@H](NC(=O)OC1CCC2(C1)CN(C(=O)OC(C)(C)C)C2)C(=O)N[C@H](C=O)C[C@H]1CCNC1=O` (stereo partly drawn) [Compound 6b, Tert-butyl 6-((((S)-4-methyl-1-oxo-1-(((S)-1-oxo-3-((R)-2-oxopyrrolidin-3-yl)propan-2-yl)amino)pentan-2-yl)carbamoyl)oxy)-2-azaspiro[3.4]octane-2-carboxylate], the CC50 is above 100 µM.
The molecule `CC(C)C[C@H](NC(=O)OC1CCC2(C1)CN(C(=O)OC(C)(C)C)C2)C(=O)N[C@@H](C[C@H]1CCNC1=O)C(O)S(=O)(=O)O` (stereo partly drawn) [Compound 6c, Sodium (2S)-2-((2S)-2-((((2-(tert-butoxycarbonyl)-2-azaspiro[3.4]octan-6-yl)oxy)carbonyl)amino)-4-methylpentanamido)-1-hydroxy-3-((R)-2-oxopyrrolidin-3-yl)propane-1-sulfonate] came in with a CC50 above 100 µM.
In turn, `CC(C)C[C@H](NC(=O)OC1CC2(CCN(C(=O)C(C)C)CC2)C1)C(=O)N[C@H](C=O)C[C@H]1CCNC1=O` [Compound 8b, 7-Isobutyryl-7-azaspiro[3.5]nonan-2-yl ((S)-4-methyl-1-oxo-1-(((S)-1-oxo-3-((R)-2-oxopyrrolidin-3-yl)propan-2-yl)amino)pentan-2-yl)carbamate] registered a CC50 above 100 µM.
`CC(C)C[C@H](NC(=O)OC1CC2(CCN(C(=O)C(C)C)CC2)C1)C(=O)N[C@@H](C[C@H]1CCNC1=O)C(O)S(=O)(=O)O` (stereo partly drawn) [Compound 8c, Sodium (2S)-1-hydroxy-2-((S)-2-((((7-isobutyryl-7-azaspiro[3.5]nonan-2-yl)oxy)carbonyl)amino)-4-methylpentanamido)-3-((R)-2-oxopyrrolidin-3-yl)propane-1-sulfonate] showed a CC50 above 100 µM.
Take `CC(C)C[C@H](NC(=O)OC1CC2(CCN(C#N)CC2)C1)C(=O)N[C@H](C=O)C[C@H]1CCNC1=O` [Compound 11b, 7-Cyano-7-azaspiro[3.5]nonan-2-yl ((S)-4-methyl-1-oxo-1-(((S)-1-oxo-3-((R)-2-oxopyrrolidin-3-yl)propan-2-yl)amino)pentan-2-yl)carbamate]: the CC50 is above 100 µM.
For the molecule `CC(C)C[C@H](NC(=O)OC1CC2(CCN(C#N)CC2)C1)C(=O)N[C@@H](C[C@H]1CCNC1=O)C(O)S(=O)(=O)O` (stereo partly drawn) [Compound 11c, Sodium (2S)-2-((S)-2-((((7-cyano-7-azaspiro[3.5]nonan-2-yl)oxy)carbonyl)amino)-4-methylpentanamido)-1-hydroxy-3-((R)-2-oxopyrrolidin-3-yl)propane-1-sulfonate], the CC50 was above 100 µM.
Still for that read-out and setting: as for `CC(C)C[C@H](NC(=O)OC1CN(C(=O)OC(C)(C)C)C1)C(=O)N[C@H](C=O)C[C@H]1CCNC1=O` [Compound 12b, Tert-butyl 3-((((S)-4-methyl-1-oxo-1-(((S)-1-oxo-3-((R)-2-oxopyrrolidin-3-yl)propan-2-yl)amino)pentan-2-yl)carbamoyl)oxy)azetidine-1-carboxylate], the figure is above 100 µM; as for `CC(C)C[C@H](NC(=O)OC1CN(C(=O)OC(C)(C)C)C1)C(=O)N[C@@H](C[C@H]1CCNC1=O)C(O)S(=O)(=O)O` (stereo partly drawn) [Compound 12c, Sodium (2S)-2-((S)-2-((((1-(tert-butoxycarbonyl)azetidin-3-yl)oxy)carbonyl)amino)-4-methylpentanamido)-1-hydroxy-3-((R)-2-oxopyrrolidin-3-yl)propane-1-sulfonate], above 100 µM.
The same measure, in the same setting: next, `CC(C)C[C@H](NC(=O)OC1(C)CN(C(=O)OC(C)(C)C)C1)C(=O)N[C@H](C=O)C[C@H]1CCNC1=O` [Compound 13b, Tert-butyl 3-methyl-3-((((S)-4-methyl-1-oxo-1-(((S)-1-oxo-3-((R)-2-oxopyrrolidin-3-yl)propan-2-yl)amino)pentan-2-yl)carbamoyl)oxy)azetidine-1-carboxylate]: above 100 µM.
`CC(C)C[C@H](NC(=O)OC1(C)CN(C(=O)OC(C)(C)C)C1)C(=O)N[C@@H](C[C@H]1CCNC1=O)C(O)S(=O)(=O)O` (stereo partly drawn) [Compound 13c, Sodium (2S)-2-((S)-2-((((1-(tert-butoxycarbonyl)-3-methylazetidin-3-yl)oxy)carbonyl)amino)-4-methylpentanamido)-1-hydroxy-3-((R)-2-oxopyrrolidin-3-yl)propane-1-sulfonate] yielded a CC50 above 100 µM.
For the molecule `CC(C)C[C@H](NC(=O)OCC1CN(C(=O)Cc2ccccc2)C1)C(=O)N[C@H](C=O)C[C@H]1CCNC1=O` [Compound 15b, (1-(2-Phenylacetyl)azetidin-3-yl)methyl ((S)-4-methyl-1-oxo-1-(((S)-1-oxo-3-((R)-2-oxopyrrolidin-3-yl)propan-2-yl)amino)pentan-2-yl)carbamate], the CC50 is above 100 µM.
`CC(C)C[C@H](NC(=O)OCC1CN(C(=O)Cc2ccccc2)C1)C(=O)N[C@@H](C[C@H]1CCNC1=O)C(O)S(=O)(=O)O` (stereo partly drawn) [Compound 15c, Sodium (2S)-1-hydroxy-2-((S)-4-methyl-2-((((1-(2-phenylacetyl)azetidin-3-yl)methoxy)carbonyl)amino)pentanamido)-3-((R)-2-oxopyrrolidin-3-yl)propane-1-sulfonate] registered a CC50 above 100 µM.
As to `CC(C)C[C@H](NC(=O)OCC1CN(C(=O)C2CC3CCC2C3)C1)C(=O)N[C@H](C=O)C[C@H]1CCNC1=O` (stereo partly drawn) [Compound 16b, (1-(Bicyclo[2.2.1]heptane-2-carbonyl)azetidin-3-yl)methyl ((S)-4-methyl-1-oxo-1-(((S)-1-oxo-3-((R)-2-oxopyrrolidin-3-yl)propan-2-yl)amino)pentan-2-yl)carbamate], the 50% cytotoxic concentration (CC50) is above 100 µM.
